According to patent US20200376035A1, “METHODS AND COMPOSITIONS COMPRISING CART AND A SMAC MIMETIC” (THE TRUSTEES OF THE UNIVERSITY OF PENNSYLVANIA, priority 2018, published 2020):
*1 amine or outer side, *2 acyl side, *3 side chain or, on linkers, in order; H or OH if unused. Where a SMILES comes first, the peptide text is derived from it. Bridges are numbered along the chain shown (N, C = ends). Roman numbers before positions name the chains, in order. [ ]: non-standard residue; d: D form. Hexamethylenediamine = C(CCCN[*:2])CCN[*:1]; Dip = N[C@H](C(=O)O)C(c1ccccc1)c1ccccc1; Chg = N[C@H](C(=O)O)C1CCCCC1; NMeA = CN[C@@H](C)C(=O)O

How the values were obtained:
[1] = tested on: HER2+ human ovarian cancer cell line (SKOV3); assay: SMAC mimetics with anti-HER2 CAR T (4D5) against SKOV3, luminescence and XCelligence; format: cell-based; conditions: SKOV3 + anti-HER2 CAR T (4D5), 50 nM drug vs DMSO
Procedure: FIGS. 12A-12B illustrate the synergistic killing of solid tumors using CAR cells in combination with SMAC mimetics. […] E:T ratio=0.01:1, [Drug]=50 nM. 24 h co-culture, A human ovarian cell line expressing endogenous HER2 and luciferase reporter (SKOV3 CBG-T2A-GFP) was seeded at density of 10^4 cells/100 μl of media in each well of 96 well plate and grown overnight. Next day, CAR T cells (4D5; Liu et al. Cancer Research 2015; (75)(17):3596-607, incorporated by reference herein in its entirety) were introduced at E:T ratio=0.01:1 50 nM of SMAC mimetics or corresponding amounts of DMSO. After 48 hours, luciferin was added to the cells and luminescence was detected using a luminometer (Biotek Synergy H4). Tumor killing was calculated using the formula: (sample-tumor treated with DMSO)/(lysis control-tumor treated with DMSO). A human ovarian adenocarcinoma cell line (SKOV3) expressing endogenous HER2 was cultured in the presence or absence of human T cells expressing a chimeric antigen receptor against HER2 at a 1:1 CART:Tumor ratio. Cells were treated with 50 nM of birinapant ([…]), BV6, AZD5582 or corresponding amounts of DMSO. Tumor killing was monitored in real-time using the impedance-based […]@ system (ACEA Biosciences, Inc).

[2] = tested on: CD19+ Luc+ NALM-6 leukemia cell line; assay: High-throughput screen of small molecule library for CART-enhancing compounds (luminescence, 48 hours); format: cell-based, human; conditions: for effect on CART killing activity in the screen: NALM-6 + CART19, 0.3:1 E:T ratio
Procedure: FIG. 6 illustrates a high-throughput platform to identify CART-enhancing bioactive compounds. The CD19+ Luc+ NALM-6 leukemia cell line was plated at 0.3:1 E:T ratio+/− CART19 using an automated dispenser, Small molecules from a custom-made library (SelleckChem) were then added via an automated workstation and luminescence was detected after 48 hours with a high-throughput plate reader.
FIG. 7 illustrates that birinapant enhances CART cell cytotoxicity. Screening results: total cytotoxicity (%) of small molecules alone (Y axis) or in combination with CART (X axis). Birinapant is represented by the dot at the “40” mark on the X axis (●).
An unbiased, reliable, automated, high-throughput system was generated to test thousands of different combinations of CART and small molecules. […] Subsequently, 2,615 different small molecules were added (1 per well). More than half of these drugs are FDA-approved. After 48 hours, tumor luminescence was recorded and percentage tumor killing was calculated. This platform has already generated several significant hits. See FIG. 7, birinapant in grey, represented by the dot at the “40” mark on the X axis (●). Thus, small molecules enhancing CART killing can be identified.
Birinapant was the only SMAC mimetic in the library.

[3] = tested on: human pre-B ALL cell line (NALM6 CBG-T2A-GFP); assay: Birinapant-enhanced CART19 killing of NALM6 with TNF antibodies, 72 hours; format: cell-based; conditions: NALM6 + CTL019, 1 μM birinapant with isotype control or TNF antibodies
Procedure: (§1) A human pre-B ALL cell line expressing endogenous CD19 and a luciferase reporter (NALM6 CBG-T2A-GFP) was cultured in the presence or absence of human T cells expressing a chimeric antigen receptor against CD19 (CTL019, KYMRIAH®). Cells were either treated with 1 μM of birinapant (TL32711, Medivir), corresponding amounts of DMSO or 1 μM birinapant (TL32711, Medivir) in combination with different amounts of isotype control or TNF antibodies. After 72 hours, luciferin was added to the cells and luminescence was detected using a luminometer (Biotek Synergy H4), Tumor killing was calculated using the formula: (sample−tumor treated with DMSO)/(lysis control−tumor treated with DMSO).
as §1, with “μM” for “μM of”, “and” for “in combination with”, “H4).” for “H4),”

[4] = tested on: human ovarian adenocarcinoma cell line (SKOV3); assay: Anti-HER2 CART (CAR 4D5) killing of SKOV3 with birinapant, impedance-based XCelligence; format: cell-based; conditions: SKOV3 + CAR 4D5, 1:1 CART:Tumor ratio, different doses of birinapant vs DMSO, real-time impedance
Procedure: FIG. 2A is a graph showing the growth and clearance of tumor cells over time. At approximately 21 h (vertical line) tumor cells were treated with only Birinapant (solid lines) or Birinapant and CART cells (dotted lines, 1:1 CART:Tumor ratio). FIG. 2B is analogous to FIG. 2A except for the addition of DMSO instead of Birinapant. FIGS. 2C and 2D summarize the results of FIGS. 2A and 2B, respectively (10 nM Birinapant or DMSO). For FIGS. 2A-2D, a human ovarian adenocarcinoma cell line (SKOV3) expressing endogenous HER2 was cultured in the presence or absence of human T cells expressing a chimeric antigen receptor against HER2 (CAR 4D5) at a 1:1 CART:Tumor ratio, Cells were treated with different doses of birinapant (TL32711, Medivir) or corresponding amounts of DMSO. Tumor killing was monitored in real-time using the impedance-based XCelligence® system (ACEA Biosciences, Inc),
A human ovarian adenocarcinoma cell line (SKOV3) expressing endogenous HER2 was cultured in the presence or absence of human T cells expressing a chimeric antigen receptor against HER2 (CAR 4D5; Liu et al. Cancer Research 2015; (7517):3596-607, incorporated by reference herein in its entirety) at a 1:1 CART:Tumor ratio. […] Tumor killing was monitored in real-time using the impedance-based XCelligence® system (ACEA Biosciences, Inc).

[5] = tested on: human pre-B ALL cell line (NALM6 CBG-T2A-GFP); assay: CART19 (CTL019) killing of NALM6 with birinapant, luciferase readout after 72 hours; format: cell-based; conditions: NALM6 + CTL019 at different ratios, different doses of birinapant vs DMSO
Procedure: FIG. 1A is a graph showing the percentage of tumor killing by CART as a result of increasing concentrations of birinapant or corresponding amounts of DMSO as a control. FIG. 1B is a graph showing the percentage of tumor killing by CART as a function of CART:Tumor ratio. For FIGS. 1A-1B, a human pre-B ALL cell line expressing endogenous CD19 and a luciferase reporter (NALM6 CBG-T2A-GFP) was cultured in the presence or absence of human T cells expressing a chimeric antigen receptor against CD19 (CTL019, KYMRIAH®) at different ratios. Cells were treated with different doses of birinapant (TL32711, Medivir) or corresponding amounts of DMSO. After 72 hours luciferin was added to the cells and luminescence was detected using a luminometer (Biotek Synergy H4). Tumor killing was calculated using the formula: (sample−tumor treated with DMSO)/(lysis control−tumor treated with DMSO). […]
A human pre-B ALL cell line expressing endogenous CD19 and a luciferase reporter (NALM6 CBG-T2A-GFP) was cultured in the presence or absence of human T cells expressing a chimeric antigen receptor against CD19 (CTL019, KYMRIAH®) at different ratios. […] After 72 hours luciferin was added to the cells and luminescence was detected using a luminometer (Biotek Synergy H4). Tumor killing was calculated using the formula: (sample−tumor treated with DMSO)/(lysis control−tumor treated with DMSO). […]

SMILES | CART killing of solid tumor cell lines [1] | effect on CART killing activity in the screen [2] | further results
CN[C@@H](C)C(=O)N[C@H](C(=O)N1CCC[C@H]1C(=O)N[C@H]1c2ccccc2C[C@H]1OCC#CC#CCO[C@@H]1Cc2ccccc2[C@@H]1NC(=O)[C@@H]1CCCN1C(=O)[C@@H](NC(=O)[C@H](C)NC)C1CCCCC1)C1CCCCC1 [AZD5582, (2S,2′S)-N,N′-((S,1′S,2R,2′R)-(hexa-2,4-diyne-1,6-diylbis(oxy))bis(2,3-dihydro-1H-indene-2,1-diyl))bis(1-((S)-2-cyclohexyl-2-((S)-2-(methylamino)propanamido)acetyl)pyrrolidine-2-carboxamide)] | enhance CART killing of solid tumor cell lines | – | –
CN[C@@H](C)C(=O)N[C@H](C(=O)N1CCC[C@H]1C(=O)N[C@H](C(=O)NCCCCCCNC(=O)[C@@H](NC(=O)[C@@H]1CCCN1C(=O)[C@@H](NC(=O)[C@H](C)NC)C1CCCCC1)C(c1ccccc1)c1ccccc1)C(c1ccccc1)c1ccccc1)C1CCCCC1 [BV6, ((S,S,2S,2′S)-N,N′-((2S,2′S)-(hexane-1,6-diylbis(azanediyl))bis(3-oxo-1,1-diphenylpropane-3,2-diyl))bis(1-((S)-2-cyclohexyl-2-((S)-2-(methylamino)propanamido)acetyl)pyrrolidine-2-carboxamide))] (I: H-[NMeA][Chg]P[Dip] / II: H-[NMeA][Chg]P[Dip]; linker I:C-II:C via Hexamethylenediamine) | enhance CART killing of solid tumor cell lines | – | –
CCCCCCCCCCCC1=C(O)C(=O)C=C(O)C1=O [Embelin, 2,5-Dihydroxy-3-undecyl-2,5-cyclohexadiene-1,4-dione] | – | Neither Embelin nor GDC-0152 revealed a significant effect on CART killing activity | –
CN[C@@H](C)C(=O)N[C@H](C(=O)N1CCC[C@H]1C(=O)Nc1snnc1-c1ccccc1)C1CCCCC1 [GDC-0152, (S)-1-((S)-2-cyclohexyl-2-((S)-2-(methylamino)propanamido)acetyl)-N-(4-phenyl-1,2,3-thiadiazol-5-yl)pyrrolidine-2-carboxamide] | – | Neither Embelin nor GDC-0152 revealed a significant effect on CART killing activity | –
CC[C@H](NC(=O)[C@H](C)NC)C(=O)N1C[C@@H](O)C[C@H]1Cc1c(-c2[nH]c3cc(F)ccc3c2C[C@@H]2C[C@H](O)CN2C(=O)[C@H](CC)NC(=O)[C@H](C)NC)[nH]c2cc(F)ccc12 [birinapant, (2S)-N-[(2S)-1-[(2R,4S)-2-[[6-fluoro-2-[6-fluoro-3-[[(2R,4S)-4-hydroxy-1-[(2S)-2-[[(2S)-2-(methylamino)propanoyl]amino]butanoyl]pyrrolidin-2-yl]methyl]-1H-indol-2-yl]-1H-indol-3-yl]methyl]-4-hydroxypyrrolidin-1-yl]-1-oxobutan-2-yl]-2-(methylamino)propanamide] | enhance CART killing of solid tumor cell lines | – | TNF dependence of enhanced CART killing of tumor [3]: birinapant-enhanced CART killing of tumor is TNF-dependent; total cytotoxicity (%) of small molecules in combination with CART (X axis) ([2]; FIG. 7, NALM-6 + CART19, 0.3:1 E:T ratio): 40%; CART killing of solid tumor cell lines [4]: enhances CART killing of solid tumor cell lines; CART killing of leukemic cell lines [5]: enhances CART killing of leukemic cell lines
